Test results taken from patent US10125121B2, “FYN kinase inhibitors” (ROTTAPHARM BIOTECH S.R.L., priority 2015, dated 2018).

What was measured:
[1] = tested on: CFA induced hyperalgesia; assay: CFA-induced inflammatory pain in rats (Randall-Selitto paw withdrawal threshold); type: in vivo; conditions: 3; rat, 24 h after administration
Description: Male Wistar rats were injected into the right hind footpad with 300 μg of Mycobacterium tuberculosis in 100 μL of liquid paraffin (Complete Freund's Adjuvant; CFA). Seventy-two hours later, compounds 2 and 26 were administered subcutaneously and 24 h after the administration, the response to noxious mechanical stimulation was assessed by measuring paw withdrawal threshold (PWT) with an analgesimeter of the Randall-Selitto type. Animals were gently restrained, and steadily increasing pressure was applied to the dorsal surface of both the ipsi-lateral (CFA-treated) and the contra-lateral paw via a dome-shaped plastic tip.
100% protection means that the animal treated with the compound and CFA can tolerate the same stimulus (weight) as the control animal which has not received CFA treatment.

[2] = tested on: mechanical hyperalgesia in meniscal tear osteoarthritis; assay: Surgically induced meniscal tear osteoarthritis in the rat (MMT); type: in vivo
Excerpt: Male Sprague Dawley rats (Charles River) approximately 350 g body weight were used. Rats were anesthetized using 2.5% isoflurane in oxygen with a flow rate of 1 I per minute. The right hind leg was shaved and surgically prepared. The medial collateral ligament was exposed and transected. The meniscus was grasped with a hemostat and reflected proximally toward the femur. The meniscus was cut through its full thickness at the narrowest point. The connective tissue layer and the skin were closed with coated Vicryl 8-0 and 4-0 silk sutures, respectively. Sham operated animals underwent an identical procedure with the exception that the medial collateral ligament was exposed but not transected. After a recovery period of 2 weeks, mechanical hyperalgesia was evaluated for the following 4 weeks, once a week, before and 90 minutes after drugs administration. Pharmacological oral treatment was performed for 28 days, starting from 14 days after surgery. After 6 weeks from surgery, rats (ten animals per group) were sacrificed and the ipsilateral knee was removed for histopathological analysis.
The maximum possible effect (MPE %) was calculated by the following formula: 100*(Compound−Vehicle)/(Sham−Vehicle)

[3] = biological target: FYN (Homo sapiens, UniProt P06241); assay: Kinase selectivity panel by Cerep
FYN, sequence (P06241 whole entry): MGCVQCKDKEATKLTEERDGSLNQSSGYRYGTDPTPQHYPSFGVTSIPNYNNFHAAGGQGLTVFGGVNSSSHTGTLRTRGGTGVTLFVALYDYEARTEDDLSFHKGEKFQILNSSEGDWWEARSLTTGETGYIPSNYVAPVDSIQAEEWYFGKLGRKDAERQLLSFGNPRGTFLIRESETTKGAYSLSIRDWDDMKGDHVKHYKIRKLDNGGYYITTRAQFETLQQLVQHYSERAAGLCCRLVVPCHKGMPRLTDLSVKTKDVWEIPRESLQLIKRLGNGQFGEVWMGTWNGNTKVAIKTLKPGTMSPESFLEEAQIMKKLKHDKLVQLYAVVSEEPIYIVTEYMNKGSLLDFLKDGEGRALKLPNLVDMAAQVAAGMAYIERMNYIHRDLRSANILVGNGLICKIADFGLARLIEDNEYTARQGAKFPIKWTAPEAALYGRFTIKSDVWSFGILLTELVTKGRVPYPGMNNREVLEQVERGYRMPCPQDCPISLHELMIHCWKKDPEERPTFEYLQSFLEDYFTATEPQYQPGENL

[4] = biological target: SRC (Homo sapiens, UniProt P12931); assay: Kinase selectivity panel by Cerep
SRC, sequence (P12931 whole entry): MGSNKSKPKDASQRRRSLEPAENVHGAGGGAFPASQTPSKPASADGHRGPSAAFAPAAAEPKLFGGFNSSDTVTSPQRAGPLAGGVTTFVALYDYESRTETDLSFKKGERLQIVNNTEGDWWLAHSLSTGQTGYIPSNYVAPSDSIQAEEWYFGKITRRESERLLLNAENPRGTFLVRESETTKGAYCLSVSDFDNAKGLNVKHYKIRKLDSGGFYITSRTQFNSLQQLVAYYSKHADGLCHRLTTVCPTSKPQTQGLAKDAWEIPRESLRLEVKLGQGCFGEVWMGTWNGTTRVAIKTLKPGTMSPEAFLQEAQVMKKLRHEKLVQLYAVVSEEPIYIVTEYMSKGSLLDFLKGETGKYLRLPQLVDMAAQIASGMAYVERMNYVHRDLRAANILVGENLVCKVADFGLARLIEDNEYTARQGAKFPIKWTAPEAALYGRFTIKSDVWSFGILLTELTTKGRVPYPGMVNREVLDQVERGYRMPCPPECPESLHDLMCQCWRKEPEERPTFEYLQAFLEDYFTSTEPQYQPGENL

[5] = biological target: LYN (Homo sapiens, UniProt P07948); assay: Kinase selectivity panel by Cerep
LYN, sequence (P07948 whole entry): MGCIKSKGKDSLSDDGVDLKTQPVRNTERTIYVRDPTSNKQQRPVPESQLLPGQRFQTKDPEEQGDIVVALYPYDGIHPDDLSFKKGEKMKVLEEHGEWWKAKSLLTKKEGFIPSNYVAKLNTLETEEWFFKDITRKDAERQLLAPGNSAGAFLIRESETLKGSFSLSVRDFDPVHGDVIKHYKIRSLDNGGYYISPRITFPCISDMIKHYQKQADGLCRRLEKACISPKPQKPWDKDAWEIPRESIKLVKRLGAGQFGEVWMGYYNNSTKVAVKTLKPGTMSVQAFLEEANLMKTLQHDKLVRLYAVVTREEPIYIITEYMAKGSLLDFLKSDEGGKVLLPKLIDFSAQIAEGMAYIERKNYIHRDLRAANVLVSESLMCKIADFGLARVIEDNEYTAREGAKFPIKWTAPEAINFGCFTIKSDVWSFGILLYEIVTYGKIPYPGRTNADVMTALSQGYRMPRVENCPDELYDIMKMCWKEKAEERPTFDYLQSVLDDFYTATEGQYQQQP

[6] = biological target: BLK (Homo sapiens, UniProt P51451); assay: Kinase selectivity panel by Cerep
BLK, sequence (P51451 whole entry): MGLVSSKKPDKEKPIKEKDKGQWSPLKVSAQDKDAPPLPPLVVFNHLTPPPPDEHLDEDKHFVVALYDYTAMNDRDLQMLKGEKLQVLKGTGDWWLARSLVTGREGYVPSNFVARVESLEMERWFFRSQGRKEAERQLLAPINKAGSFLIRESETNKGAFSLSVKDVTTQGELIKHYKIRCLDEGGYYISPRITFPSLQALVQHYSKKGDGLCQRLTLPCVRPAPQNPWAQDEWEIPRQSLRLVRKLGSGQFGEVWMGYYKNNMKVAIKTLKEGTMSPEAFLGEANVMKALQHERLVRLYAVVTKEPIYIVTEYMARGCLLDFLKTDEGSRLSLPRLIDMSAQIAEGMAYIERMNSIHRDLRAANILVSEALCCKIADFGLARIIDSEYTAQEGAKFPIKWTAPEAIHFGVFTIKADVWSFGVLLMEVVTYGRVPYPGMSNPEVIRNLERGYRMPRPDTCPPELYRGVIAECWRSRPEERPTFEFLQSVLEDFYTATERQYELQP

[7] = biological target: LCK (Homo sapiens, UniProt P06239); assay: Kinase selectivity panel by Cerep
LCK, sequence (P06239 whole entry): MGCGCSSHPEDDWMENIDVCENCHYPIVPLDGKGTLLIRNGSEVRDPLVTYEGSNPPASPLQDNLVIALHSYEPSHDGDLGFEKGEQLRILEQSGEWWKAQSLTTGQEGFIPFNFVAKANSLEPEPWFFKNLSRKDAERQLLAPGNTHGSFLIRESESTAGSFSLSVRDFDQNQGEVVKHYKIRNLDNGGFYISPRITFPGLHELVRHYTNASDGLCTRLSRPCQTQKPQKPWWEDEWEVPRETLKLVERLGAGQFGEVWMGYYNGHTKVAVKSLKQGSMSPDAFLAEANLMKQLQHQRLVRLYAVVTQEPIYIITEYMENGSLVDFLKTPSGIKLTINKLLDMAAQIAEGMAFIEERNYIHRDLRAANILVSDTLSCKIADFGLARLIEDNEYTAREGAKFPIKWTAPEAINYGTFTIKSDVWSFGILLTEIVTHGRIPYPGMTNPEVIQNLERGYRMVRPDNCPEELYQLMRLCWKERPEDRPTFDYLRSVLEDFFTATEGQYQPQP

[8] = biological target: RET (Homo sapiens, UniProt P07949); assay: Kinase selectivity panel by Cerep; conditions: read-out: inhibition of RET
RET, sequence (P07949 29-1114): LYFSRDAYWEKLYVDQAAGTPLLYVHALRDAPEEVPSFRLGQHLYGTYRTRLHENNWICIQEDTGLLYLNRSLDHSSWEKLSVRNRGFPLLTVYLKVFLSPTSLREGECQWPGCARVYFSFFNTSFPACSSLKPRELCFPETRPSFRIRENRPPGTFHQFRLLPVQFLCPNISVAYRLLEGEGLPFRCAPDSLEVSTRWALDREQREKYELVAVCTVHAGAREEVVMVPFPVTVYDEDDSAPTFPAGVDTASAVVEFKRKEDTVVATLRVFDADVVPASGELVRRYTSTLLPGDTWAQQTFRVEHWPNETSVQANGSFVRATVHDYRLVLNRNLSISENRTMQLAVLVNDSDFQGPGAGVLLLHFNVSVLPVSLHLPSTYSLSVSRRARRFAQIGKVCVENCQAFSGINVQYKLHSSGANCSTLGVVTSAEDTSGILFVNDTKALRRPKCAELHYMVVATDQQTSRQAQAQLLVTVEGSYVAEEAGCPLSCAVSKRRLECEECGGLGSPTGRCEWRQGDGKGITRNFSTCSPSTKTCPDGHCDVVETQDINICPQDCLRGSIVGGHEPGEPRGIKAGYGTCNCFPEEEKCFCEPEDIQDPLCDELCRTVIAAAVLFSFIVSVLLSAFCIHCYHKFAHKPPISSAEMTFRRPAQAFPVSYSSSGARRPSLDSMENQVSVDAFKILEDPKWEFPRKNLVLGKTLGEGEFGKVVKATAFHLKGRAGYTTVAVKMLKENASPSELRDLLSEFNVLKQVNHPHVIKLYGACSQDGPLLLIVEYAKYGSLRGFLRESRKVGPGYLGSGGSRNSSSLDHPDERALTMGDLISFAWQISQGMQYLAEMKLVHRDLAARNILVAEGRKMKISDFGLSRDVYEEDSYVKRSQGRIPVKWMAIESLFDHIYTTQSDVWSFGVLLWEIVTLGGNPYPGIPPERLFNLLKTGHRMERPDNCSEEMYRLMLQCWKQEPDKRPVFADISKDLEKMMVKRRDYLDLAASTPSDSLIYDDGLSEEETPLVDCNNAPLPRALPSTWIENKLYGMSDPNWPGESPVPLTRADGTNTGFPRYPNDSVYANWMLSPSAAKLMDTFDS

[9] = biological target: CDK2 (Homo sapiens, UniProt P24941); assay: Kinase selectivity panel by Cerep; conditions: read-out: inhibition of CDK2
[10] = biological target: T1, FLT-3 (Homo sapiens, UniProt P36888); assay: Kinase selectivity panel by Cerep; conditions: read-out: inhibition of FLT-3
T1 sequence (P36888 27-993): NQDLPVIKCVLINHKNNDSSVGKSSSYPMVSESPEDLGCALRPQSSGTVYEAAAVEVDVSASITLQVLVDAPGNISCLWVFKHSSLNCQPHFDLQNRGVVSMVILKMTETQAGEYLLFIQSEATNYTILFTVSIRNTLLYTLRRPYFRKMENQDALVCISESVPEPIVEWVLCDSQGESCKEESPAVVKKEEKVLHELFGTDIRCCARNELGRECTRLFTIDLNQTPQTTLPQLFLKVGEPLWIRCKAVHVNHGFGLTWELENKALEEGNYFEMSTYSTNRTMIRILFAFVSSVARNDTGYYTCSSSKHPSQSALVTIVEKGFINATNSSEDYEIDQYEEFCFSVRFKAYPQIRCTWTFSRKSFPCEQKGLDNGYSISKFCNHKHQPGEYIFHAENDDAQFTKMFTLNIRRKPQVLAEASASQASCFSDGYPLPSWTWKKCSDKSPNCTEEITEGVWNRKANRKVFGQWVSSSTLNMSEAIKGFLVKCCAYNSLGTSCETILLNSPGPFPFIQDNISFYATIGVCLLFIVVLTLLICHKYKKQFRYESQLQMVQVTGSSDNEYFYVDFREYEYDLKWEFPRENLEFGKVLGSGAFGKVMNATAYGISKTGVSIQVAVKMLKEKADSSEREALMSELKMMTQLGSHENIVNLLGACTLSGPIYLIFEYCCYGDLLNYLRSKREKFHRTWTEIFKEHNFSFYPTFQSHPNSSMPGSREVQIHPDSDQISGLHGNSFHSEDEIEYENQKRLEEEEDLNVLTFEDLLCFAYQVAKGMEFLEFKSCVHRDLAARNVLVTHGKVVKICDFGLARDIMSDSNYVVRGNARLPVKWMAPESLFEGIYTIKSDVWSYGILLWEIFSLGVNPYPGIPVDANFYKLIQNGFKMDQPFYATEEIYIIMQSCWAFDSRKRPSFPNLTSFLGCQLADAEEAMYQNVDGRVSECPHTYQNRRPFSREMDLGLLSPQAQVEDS

[11] = biological target: FLT-4 (Homo sapiens, UniProt P35916); assay: Kinase selectivity panel by Cerep; conditions: read-out: inhibition of FLT-4
FLT-4, sequence (P35916 25-1363): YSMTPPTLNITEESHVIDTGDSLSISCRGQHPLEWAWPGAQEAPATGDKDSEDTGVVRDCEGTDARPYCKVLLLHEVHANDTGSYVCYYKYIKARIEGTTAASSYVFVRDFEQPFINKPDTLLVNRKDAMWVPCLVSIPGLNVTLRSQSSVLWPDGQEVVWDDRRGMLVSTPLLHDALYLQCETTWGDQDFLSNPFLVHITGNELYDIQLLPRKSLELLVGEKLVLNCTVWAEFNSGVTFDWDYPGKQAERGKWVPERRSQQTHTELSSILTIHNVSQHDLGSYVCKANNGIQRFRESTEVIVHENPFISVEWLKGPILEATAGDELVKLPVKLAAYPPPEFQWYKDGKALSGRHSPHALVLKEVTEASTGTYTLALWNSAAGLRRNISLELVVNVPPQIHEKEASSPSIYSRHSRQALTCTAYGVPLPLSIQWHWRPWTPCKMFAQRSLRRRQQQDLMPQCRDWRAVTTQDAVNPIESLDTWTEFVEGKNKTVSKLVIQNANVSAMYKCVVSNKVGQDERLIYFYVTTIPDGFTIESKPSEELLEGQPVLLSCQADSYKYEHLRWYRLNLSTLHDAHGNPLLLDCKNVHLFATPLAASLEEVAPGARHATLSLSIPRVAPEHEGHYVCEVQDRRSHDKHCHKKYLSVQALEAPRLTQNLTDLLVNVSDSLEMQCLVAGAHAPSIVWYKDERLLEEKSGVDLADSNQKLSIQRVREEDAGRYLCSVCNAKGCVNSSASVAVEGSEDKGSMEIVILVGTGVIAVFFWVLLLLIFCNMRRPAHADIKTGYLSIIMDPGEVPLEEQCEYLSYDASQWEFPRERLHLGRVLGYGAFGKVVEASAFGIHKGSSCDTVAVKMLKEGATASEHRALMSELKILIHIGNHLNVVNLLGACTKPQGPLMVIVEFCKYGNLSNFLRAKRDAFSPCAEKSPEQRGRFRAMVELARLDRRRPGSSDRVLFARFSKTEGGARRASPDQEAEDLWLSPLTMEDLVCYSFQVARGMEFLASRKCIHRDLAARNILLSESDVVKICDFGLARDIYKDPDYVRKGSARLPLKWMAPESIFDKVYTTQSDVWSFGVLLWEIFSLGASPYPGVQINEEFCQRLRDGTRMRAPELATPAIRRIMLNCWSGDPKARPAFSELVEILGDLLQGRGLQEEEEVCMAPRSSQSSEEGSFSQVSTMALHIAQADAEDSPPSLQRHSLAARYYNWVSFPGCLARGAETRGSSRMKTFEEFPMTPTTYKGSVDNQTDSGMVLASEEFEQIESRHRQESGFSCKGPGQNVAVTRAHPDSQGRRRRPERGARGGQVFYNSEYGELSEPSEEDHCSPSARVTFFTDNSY

[12] = tested on: other kinases examined of the SRC family; assay: Kinase selectivity panel by Cerep
[13] = tested on: remaining kinases examined (standard panel of about 100 human kinase assay); assay: Kinase selectivity panel by Cerep
[14] = 10 mg/kg daily orally, day 21 post surgery
[15] = 10 mg/kg daily orally, day 28 post surgery
[16] = 10 mg/kg daily orally, day 35 post surgery
[17] = 10 mg/kg daily orally, day 42 post surgery
[18] = 30 mg/kg daily orally, day 21 post surgery
[19] = 30 mg/kg daily orally, day 28 post surgery
[20] = 30 mg/kg daily orally, day 35 post surgery
[21] = 30 mg/kg daily orally, day 42 post surgery

Structure (SMILES): O=C(Nc1ccc(CN2CCN(c3nccc(Nc4cc(C5CC5)[nH]n4)n3)CC2)cc1)c1ccccc1C(F)(F)F [Compound 2, N-(4-((4-(4-((5-cyclopropyl-1H-pyrazol-3-yl)amino)pyrimidin-2-yl)piperazin-1-yl)methyl)phenyl)-2-(trifluoromethyl)-benzamide]
- % protective effect vs. CFA induced hyperalgesia [1]: 100%
- Pain threshold ([2]; 10 mg/kg daily orally, day 14 post surgery): 308 g
- Pain threshold [2, 14]: 333 g
- Pain threshold: MPE (%) [2, 14]: 30.5%
- Pain threshold [2, 15]: 323 g
- Pain threshold: MPE (%) [2, 15]: 22.6%
- Pain threshold [2, 16]: 313 g
- Pain threshold: MPE (%) [2, 16]: 18.2%
- Pain threshold [2, 17]: 298 g
- Pain threshold: MPE (%) [2, 17]: 21%
- Pain threshold ([2]; 30 mg/kg daily orally, day 14 post surgery): 305 g
- Pain threshold [2, 18]: 358 g
- Pain threshold: MPE (%) [2, 18]: 44%
- Pain threshold [2, 19]: 343 g
- Pain threshold: MPE (%) [2, 19]: 35.5%
- Pain threshold [2, 20]: 335 g
- Pain threshold: MPE (%) [2, 20]: 38.2%
- Pain threshold [2, 21]: 320 g
- Pain threshold: MPE (%) [2, 21]: 43%
- IC50 [3]: 0.009 µM
- IC50 [4]: 0.73 µM
- IC50 [5]: 1.4 µM
- IC50 [6]: 0.48 µM
- IC50 [7]: 0.45 µM
- inhibition at 0.1 µM [8]: > 50%
- inhibition at 0.1 µM [9]: > 50%
- inhibition at 0.1 µM [10]: > 50%
- inhibition at 0.1 µM [11]: > 50%
- average potency ratio (other SRC family kinases vs FYN) [12]: about 100
- IC50 ([12]; read-out: IC50, all other kinases examined of the SRC family): > 0.1 µM
- effect on more than 70% of the remaining kinases examined [13]: practically ineffective
